13 compounds from US11987588B2, “Modulators of the beta-3 adrenergic receptor useful for the treatment or prevention of heart failure and disorders related thereto” (Arena Pharmaceuticals, Inc., priority 2017, dated 2024) can be followed below.

“Also recorded” adds a separate entry of the source.

Beta-3 Adrenergic Receptor, sequence (P13945 whole entry, species assumed): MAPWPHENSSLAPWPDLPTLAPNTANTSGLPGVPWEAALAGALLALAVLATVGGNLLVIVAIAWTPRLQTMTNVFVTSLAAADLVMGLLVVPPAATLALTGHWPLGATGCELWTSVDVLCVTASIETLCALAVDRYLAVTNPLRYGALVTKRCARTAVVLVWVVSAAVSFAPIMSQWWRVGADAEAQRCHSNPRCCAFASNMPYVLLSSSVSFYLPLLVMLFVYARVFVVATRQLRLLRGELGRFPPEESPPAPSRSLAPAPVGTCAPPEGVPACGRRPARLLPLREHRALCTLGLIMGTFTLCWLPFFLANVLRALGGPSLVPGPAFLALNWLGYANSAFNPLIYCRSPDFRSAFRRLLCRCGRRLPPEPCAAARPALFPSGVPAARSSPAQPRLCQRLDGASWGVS

The target of the first assay is Beta-3 Adrenergic Receptor (Homo sapiens (Human), UniProt P13945). In words: Homogeneous Time-Resolved Fluorescence (HTRF) cAMP antagonist assay, IC50 determination. The class given is cell-based. The following applies: CHO-K1 cells stably expressing recombinant receptor, isoproterenol at EC90. Summed up:
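CHO-K1 cells stably expressing receptor, 1500 cells/well, preincubated briefly with 10-point 5-fold compound series (top final typically 10 or 100 μM) in PBS with 1 mM IBMX, then challenged with isoproterenol at EC90 for 1 h at room temperature. cAMP read by HTRF against on-plate standard curve; IC50 from dose-response.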
For orientation: Time-resolved FRET reads energy transfer from a long-lived donor to a nearby acceptor.
Regarding `CNS(=O)(=O)c1cccc(OC[C@@H](O)CN[C@H]2COC3(CCN(S(=O)(=O)c4cnc5cc[nH]c5c4)CC3)C2)c1` [Compound 505, 3-((S)-3-((R)-8-(1H-pyrrolo[3,2-b]pyridin-6-ylsulfonyl)-1-oxa-8-azaspiro[4.5]decan-3-ylamino)-2-hydroxypropoxy)-N-methylbenzenesulfonamide], the IC50 worked out at 8.46 nM.
As for `CNS(=O)(=O)c1cccc(OC[C@@H](O)CNC2COC3(CCN(S(=O)(=O)c4ccc(-c5ccc(CN)cc5)cc4OC(F)(F)F)CC3)C2)c1` (stereo partly drawn) [Compound 403, 3-((2S)-3-(8-(4′-(aminomethyl)-3-(trifluoromethoxy)biphenyl-4-ylsulfonyl)-1-oxa-8-azaspiro[4.5]decan-3-ylamino)-2-hydroxypropoxy)-N-methylbenzenesulfonamide], the IC50 was determined as 80.6 nM.
On the same count and under the same terms, the value for `CNS(=O)(=O)c1cccc(OC[C@@H](O)CNC2COC3(CCN(S(=O)(=O)c4cc(-c5ccc(CN)cc5)ccc4OC(F)(F)F)CC3)C2)c1` (stereo partly drawn) [Compound 411, 3-((2S)-3-(8-(4′-(aminomethyl)-4-(trifluoromethoxy)biphenyl-3-ylsulfonyl)-1-oxa-8-azaspiro[4.5]decan-3-ylamino)-2-hydroxypropoxy)-N-methylbenzenesulfonamide] was 9.84 nM; that for `CNS(=O)(=O)c1cccc(OC[C@@H](O)CNC2COC3(CCN(S(=O)(=O)c4ccc(CO)cc4)CC3)C2)c1` (stereo partly drawn) [Compound 392, 3-((2S)-2-hydroxy-3-(8-(4-(hydroxymethyl)phenylsulfonyl)-1-oxa-8-azaspiro[4.5]decan-3-ylamino)propoxy)-N-methylbenzenesulfonamide] was 168 nM.
Still for that read-out and setting: in the case of `CNS(=O)(=O)c1cccc(OC[C@@H](O)CN[C@H]2COC3(CCN(S(=O)(=O)c4cnc5ccc(F)cc5c4O)CC3)C2)c1` [Compound 534, 3-((S)-3-((R)-8-(6-fluoro-4-hydroxyquinolin-3-ylsulfonyl)-1-oxa-8-azaspiro[4.5]decan-3-ylamino)-2-hydroxypropoxy)-N-methylbenzenesulfonamide] it was 20.8 nM; in that of `CCOc1nc2c(cc1S(=O)(=O)N1CCC3(CC1)C[C@H](NC[C@H](O)COc1cccc(S(=O)(=O)NC)c1)CO3)N(C)CCO2` [Compound 450, 3-((S)-3-((S)-8-(6-ethoxy-1-methyl-2,3-dihydro-1H-pyrido[2,3-b][1,4]oxazin-7-ylsulfonyl)-1-oxa-8-azaspiro[4.5]decan-3-ylamino)-2-hydroxypropoxy)-N-methylbenzenesulfonamide], 28.2 nM.
Still for that read-out and setting: the value for `C[C@@H](CO)NS(=O)(=O)c1cccc(OC[C@@H](O)CN[C@H]2COC3(CCN(S(=O)(=O)c4cnc5c(c4)N(C)CCO5)CC3)C2)c1` [Compound 432, 3-((S)-2-hydroxy-3-((R)-8-(1-methyl-2,3-dihydro-1H-pyrido[2,3-b][1,4]oxazin-7-ylsulfonyl)-1-oxa-8-azaspiro[4.5]decan-3-ylamino)propoxy)-N—((S)-1-hydroxypropan-2-yl)benzenesulfonamide] was 196 nM.
`CN1CCOc2ncc(S(=O)(=O)N3CCC4(CC3)C[C@@H](NC[C@H](O)COc3cccc(S(=O)(=O)N[C@H]5CCCC[C@@H]5O)c3)CO4)cc21` [Compound 431, 3-((S)-2-hydroxy-3-((R)-8-(1-methyl-2,3-dihydro-1H-pyrido[2,3-b][1,4]oxazin-7-ylsulfonyl)-1-oxa-8-azaspiro[4.5]decan-3-ylamino)propoxy)-N-((1S,2S)-2-hydroxycyclohexyl)benzenesulfonamide]: the IC50 is 1160 nM.
The same measure, in the same setting: in the case of `CN(C)S(=O)(=O)c1cccc(OC[C@@H](O)CNC2COC3(CCN(S(=O)(=O)c4cccc(-c5ccc(S(N)(=O)=O)cc5)c4)CC3)C2)c1` (stereo partly drawn) [Compound 274, 3′-(3-((S)-3-(3-(N,N-dimethylsulfamoyl)phenoxy)-2-hydroxypropylamino)-1-oxa-8-azaspiro[4.5]decan-8-ylsulfonyl)biphenyl-4-sulfonamide] it was 21.1 nM; in that of `CNS(=O)(=O)c1cccc(OC[C@@H](O)CN[C@H]2COC3(CCN(c4ccncn4)CC3)C2)c1` [Compound 589, 3-((S)-2-hydroxy-3-((R)-8-(pyrimidin-4-yl)-1-oxa-8-azaspiro[4.5]decan-3-ylamino)propoxy)-N-methylbenzenesulfonamide], 1450 nM; in that of `CNS(=O)(=O)c1cccc(OC[C@@H](O)CN[C@H]2COC3(CCN(S(=O)(=O)c4cnc5c(c4)N(CCOC)CCO5)CC3)C2)c1` [Compound 471, 3-((S)-2-hydroxy-3-((R)-8-(1-(2-methoxyethyl)-2,3-dihydro-1H-pyrido[2,3-b][1,4]oxazin-7-ylsulfonyl)-1-oxa-8-azaspiro[4.5]decan-3-ylamino)propoxy)-N-methylbenzenesulfonamide], 69 nM.
Same read-out and setting: in the case of `Cc1noc(C)c1S(=O)(=O)N1CCC2(CC1)CC(NC[C@H](O)COc1cccc(S(=O)(=O)N(C)C)c1)CO2` (stereo partly drawn) [Compound 254, 3-((2S)-3-(8-(3,5-dimethylisoxazol-4-ylsulfonyl)-1-oxa-8-azaspiro[4.5]decan-3-ylamino)-2-hydroxypropoxy)-N,N-dimethylbenzenesulfonamide] it was 97.3 nM.
On the same count and under the same terms, the value for `C[C@@H](O)CNS(=O)(=O)c1cccc(OC[C@@H](O)CN[C@H]2COC3(CCN(S(=O)(=O)c4cnc5c(c4)N(C)CCO5)CC3)C2)c1` [Compound 436, 3-((S)-2-hydroxy-3-((R)-8-(1-methyl-2,3-dihydro-1H-pyrido[2,3-b][1,4]oxazin-7-ylsulfonyl)-1-oxa-8-azaspiro[4.5]decan-3-ylamino)propoxy)-N—((R)-2-hydroxypropyl)benzenesulfonamide] was 367 nM.

The subject of a further assay is chronic heart failure (CHF) rats. In words: Chronic heart failure (CHF) rat model, attenuation of negative contractile effects of BRL 37344 on left ventricular pressure. The class given is in vivo. The settings on record: 10 min infusion at 3, 10, 30 mg/kg/hr, then bolus of BRL (3 μg/kg). How it is done:
Beta-3 adrenergic receptor antagonists can be evaluated for effects on cardiac contractility in chronic heart failure (CHF) rats. Beta-3 adrenergic receptor expression is weak in the normal rat heart and higher in the rat heart with CHF. Because beta-3 adrenergic receptor expression is higher in the rat heart with CHF, a compound of the present invention was evaluated for the ability to attenuate the negative contractile effects of the beta-3 adrenergic receptor agonist BRL 37344 (BRL) compared to baseline in this CHF rat model.
Myocardial infarction was induced in male Sprague-Dawley rats by performing left coronary descending artery ligation. […]
Heart failure was evaluated weekly following surgery by testing impaired left ventricular function by echocardiography. Left ventricle end-diastolic volume (LVEDV) and left ventricle end-systolic volume (LVESV) were measured for at least three consecutive cardiac cycles in long-axis view images. Ejection Fraction (EF %) was calculated using the following formula: EF %=(LVEDV-LVESV)/LVEDV. […]
A direct determination of left ventricular function was used for all rats to evaluate the effects of compounds on left ventricular contractility. […] Left ventricular pressure (LVP) was monitored by LabChart with POWERLAB® Data Acquisition System (ADInstruments, Sydney, Australia). […]
As to `CNS(=O)(=O)c1cccc(OC[C@@H](O)CN[C@H]2COC3(CCN(S(=O)(=O)c4cnc5cc[nH]c5c4)CC3)C2)c1` [Compound 505, 3-((S)-3-((R)-8-(1H-pyrrolo[3,2-b]pyridin-6-ylsulfonyl)-1-oxa-8-azaspiro[4.5]decan-3-ylamino)-2-hydroxypropoxy)-N-methylbenzenesulfonamide], the “left ventricular pressure (LVP)” value was “dose-dependent improvement; also recorded: inhibition of negative effects of BRL on left ventricular pressure (LVP)”.

By IC50 is commonly meant the concentration needed to halve the response being measured.
